# From patent US20230118459A1, “ANTIVIRAL TREATMENT” (priority 2020, published 2023)
# Experiments:
# HCV = settings: Anggakusuma et al., 2013, read-out: EC50 inhibiting binding and fusion; cited from earlier work
# [1] = system: virus (not named) in Huh7 cells; assay: Cytopathic effect assay; settings: for inhibition at 14 µM: read-out: average inhibition (%) at 14 μM; for inhibition at 29 µM: read-out: average inhibition (%) at 29 μM; for average inhibition (%) at 14 μM / average inhibition (%) at 29 μM: virus added directly after compound
# [2] = system: enveloped viruses, including HIV, IAV, VSV, and SARS; settings: VSV (Harada, 2005), SARS (Cinatl et al., 2003); cited from earlier work
# [3] = Huh7 cells, cytopathic effect, 7 days at 33° C.
Compound,"EC30 [1, 3] [µM]","average inhibition (%) at 14 μM ([1]; Huh7 cells, 7 days at 33° C.) [%]","average inhibition (%) at 29 μM ([1]; Huh7 cells, 7 days at 33° C.) [%]",further results
COc1cc(/C=C/C(=O)CC(=O)/C=C/c2ccc(O)c(OC)c2)ccc1O [Curcumin],,,,EC50 (HCV): 8.46 µM
"CCCCCCCCCCCCCC(=O)NCCC[N+](C)(C)Cc1ccccc1 [ES001071, myristamido-propyl-dimethyl-benzyl-ammonium chloride, reference compound]",22.7,,,"inhibition at 14 µM ([1]; Huh-7, 168 h): 8.7%; inhibition at 29 µM ([1]; Huh-7, 168 h): 35.9%"
"CCCCCCCCCCCCCC(=O)NCCC[N+](C)(C)Cc1ccccc1.C[C@H](O)C(=O)[O-] [ES001391, Myramistin (L)-lactate]",45.1,0,18.5,
"CCCCCCCC(=O)[O-].CCCCCCCCCCCCCC(=O)NCCC[N+](C)(C)Cc1ccccc1 [ES001639, Myramistin capiylate]",22.3,17.9,42.1,
"CCCCCCCCCCCCCC(=O)NCCC[N+](C)(C)Cc1ccccc1.O=C([O-])CO [ES001652, Myramistin glycolate]",23.8,17.0,36.2,
"CCCCCCCCCCCCCC(=O)NCCC[N+](C)(C)Cc1ccc(C)cc1 [ES001706, N-(3-(dimethyl 4-methylbenzylammonio)propyl)myristamide chloride]",,,,"inhibition at 14 µM ([1]; Huh-7, 168 h): 23.8%; inhibition at 29 µM ([1]; Huh-7, 168 h): 34.1%"
"CCCCCCCCCCCCCC(=O)NCCC[N+](C)(C)Cc1ccc(C#N)cc1 [ES001713, N-(3-(dimethyl 4-cyanobenzylammonio)propyl)myristamide chloride]",11.8,,,"EC50 ([1]; Huh-7, 168 h): 16.7 µM; inhibition at 14 µM ([1]; Huh-7, 168 h): 38.3%; inhibition at 29 µM ([1]; Huh-7, 168 h): 79.4%"
"CCCCCCCCCCCCCC(=O)NCCC[N+](C)(C)CCc1ccccc1.[Cl-] [ES001726, N-(3-(dimethylethylenephenylammonio)propyl)myristamide chloride]",15.7,26.4,14.9,
CC1(C)[C@@H](O[C@H]2O[C@H](C(=O)O)[C@@H](O)[C@H](O)[C@H]2O[C@@H]2O[C@H](C(=O)O)[C@@H](O)[C@H](O)[C@H]2O)CC[C@]2(C)[C@H]3C(=O)C=C4[C@@H]5C[C@@](C)(C(=O)O)CC[C@]5(C)CC[C@@]4(C)[C@]3(C)CC[C@@H]12 [Glycyrrhizin],,,,activity against enveloped viruses [2]: weakly active
Myramistin citrate [ES001637],21.1,19.5,36.8,
N-(3-(dimethyl 3-methylenethiophenyl ammonio)propyl)myristamide chloride [ES001716],21.1,13.3,51.8,"EC50 [1, 3]: 28.1 µM"
N-(3-(dimethyl 4-methylenenaphthyl ammonio)propyl)myristamide chloride [ES001715],10.0,45.4,0,
